{"source": "paper PMC6938011", "about": "“Antiplasmodial profile of selected compounds from Malaria Box: in vitro evaluation, speed of action and drug combination studies” (Malaria Journal, 2019)", "key": {"[1]": {"system": "P. falciparum", "assay": "Combination assays, isobologram analysis (FIC50 pairs)", "assay_type": "cell-based, Plasmodium falciparum", "details": "isobologram, IC50 equivalent ratios 1:4, 2:3, 1:1, 3:2, 4:1", "procedure": "Combinations of anti-malarial candidates with artesunate, an artemisinin derivative, were tested in fixed molar ratios based on the individual IC50 values that were previously determined by the SYBR Green I assay. Traditionally, a line (isobole) of additivity is used to distinguish between additive, synergic, and antagonistic interaction profiles. […] Thus, a systematic consideration of additivity ranges was included in the isobologram analysis, as previously described by Grabovsky and Tallarida. Concentration-response curves of individual compounds were used in the calculation of each pair’s additivity range (area within the upper and lower limits in Figs. 4 and 5). Fractional inhibitory concentration (FIC50) pairs plotted as points inside the additivity range indicate the expected sum of each compound effect, while points above and below the range indicate antagonistic and synergic interactions, respectively. The selected inhibitors were combined with artesunate in the IC50 equivalent ratios of 1:4, 2:3, 1:1, 3:2 and 4:1 for the construction of the isobolograms."}, "[2]": {"system": "P. falciparum", "assay": "Combination assays, isobologram analysis (FIC50 pairs)", "assay_type": "cell-based, Plasmodium falciparum"}, "[3]": {"system": "P. falciparum", "details": "cited from earlier work"}}, "data": [{"smiles": "O=C1C(O)=C([C@H]2CC[C@H](c3ccc(Cl)cc3)CC2)C(=O)c2ccccc21", "note": "[atovaquone, reference compound]", "values": [{"measurement": "Combination profile with artesunate", "setting": "[1]", "value": "antagonistic"}, {"measurement": "Combination profile with proguanil", "setting": "[2]", "value": "synergic"}, {"measurement": "Speed of action (literature)", "setting": "[3]", "value": "slow"}]}]}
